We go through 16 compounds from patent US10758549B2, “Compositions of obeticholic acid and methods of use” (Intercept Pharmaceuticals, Inc., priority 2015, dated 2020).

“And” between values parts separate entries of the source, which are not always exact repeats. Equal values may be shown once.

A short description of data set [1]: Particle size distribution, dry dispersion laser diffraction (Sympatec). The format is physicochemical. To be noted: for PSD X10 / PSD X50 / PSD X90: spiral jet mill, JetPharma; for D10 / D50 / D90 / D25 / D75 / D95: in µm (unit assumed). The procedure: Particle size of agglomeration was identified as playing a primary role in the release rate and dissolution and variability in the blend uniformity and content uniformity of the tablet formulations. In order to obtain an appropriate particle size distribution (PSD), milling of obeticholic acid was investigated. The particle size of the formulations was reduced using comilling and jet milling to improve its dissolution release profile. Particle size analysis was performed using a dry dispersion method and analyzed by laser diffraction using Sympatec equipment.
Particle size distribution was assessed using a dry dispersion method analyzed by laser diffraction using a Sympatec Laser Helos/KF-Magic F71000 with Rodos Dispersing Unit. The OCA sample (0.5 g sample) was tested as a dry powder. The parameters for the validated particle size analysis method are described below:
Apparatus: Sympatec Laser Helos/KF-Magic F71000 with Rodos Dispersing Unit, Vibri sampling unit with Sniffer rotation, Nilfisk exhaustion or equivalent.
Dispersing principle: Dry.

A further data set is described as follows: Surface area by BET. The format is physicochemical. The procedure: The impact of jet-milling on API particle size and surface area is detailed in Table 4-1 and Table 4-2, respectively. Surface area was tested per a BET (Brunauer, Emmett, and Teller theory). The BET method for analyzing surface area is based on adsorption of gas on a surface. The amount of gas adsorbed at a given pressure allows a determination of the surface area.

For data set [2], the target named is T1, farnesoid X receptor (FXR) (Homo sapiens, UniProt Q96RI1).
T1 sequence (Q96RI1 1-486): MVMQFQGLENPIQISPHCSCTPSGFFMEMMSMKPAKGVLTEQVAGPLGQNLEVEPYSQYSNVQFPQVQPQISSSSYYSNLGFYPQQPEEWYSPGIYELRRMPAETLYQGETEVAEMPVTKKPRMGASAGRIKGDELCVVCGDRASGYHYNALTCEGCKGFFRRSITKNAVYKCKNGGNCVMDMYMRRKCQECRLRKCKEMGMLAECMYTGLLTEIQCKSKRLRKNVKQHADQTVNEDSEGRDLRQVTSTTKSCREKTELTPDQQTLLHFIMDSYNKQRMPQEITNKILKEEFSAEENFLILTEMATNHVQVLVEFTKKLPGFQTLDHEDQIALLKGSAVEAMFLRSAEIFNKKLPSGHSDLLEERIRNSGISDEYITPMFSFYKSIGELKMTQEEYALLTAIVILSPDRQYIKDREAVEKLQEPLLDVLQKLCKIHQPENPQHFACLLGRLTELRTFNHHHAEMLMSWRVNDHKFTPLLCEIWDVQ
To be noted: in vitro / on FXR; cited from earlier work.

Where [3] appears, read: Before jet-milling (unmicronized).

In the case of `CC[C@H]1[C@@H](O)[C@@H]2[C@H](CC[C@]3(C)[C@@H]([C@H](C)CCC(=O)O)CC[C@@H]23)[C@@]2(C)CC[C@@H](O)C[C@@H]12` [JP1408002], in data set [1], the “PSD X10” value is on record as “X10: 1 μm”, the “PSD X50” value is recorded as “X50: 4 μm” and the “PSD X90” value is “X90: 14 μm”.
In data set [1], `CC[C@H]1[C@@H](O)[C@@H]2[C@H](CC[C@]3(C)[C@@H]([C@H](C)CCC(=O)O)CC[C@@H]23)[C@@]2(C)CC[C@@H](O)C[C@@H]12` [Jet mill, classifier speed 10000 rpm] yielded a D16 of 1.4 µm, a D84 of 4.7 µm, a D99 of 9 µm and a D10 of 1.1. In data set [1], this compound yielded a D50 of 2.7 and a D90 of 5.6.
For the compound `CC[C@H]1[C@@H](O)[C@@H]2[C@H](CC[C@]3(C)[C@@H]([C@H](C)CCC(=O)O)CC[C@@H]23)[C@@]2(C)CC[C@@H](O)C[C@@H]12` [JP1408003], in data set [1], the “PSD X10” value is given as “X10: 1 μm”, the “PSD X50” value was “X50: 4 μm” and the “PSD X90” value was “X90: 15 μm”.
Take `CC[C@H]1[C@@H](O)[C@@H]2[C@H](CC[C@]3(C)[C@@H]([C@H](C)CCC(=O)O)CC[C@@H]23)[C@@]2(C)CC[C@@H](O)C[C@@H]12` [Comilled with 0.46 mm screen]: in data set [1], the D10 worked out at 5.7, the D25 worked out at 122.9, the D50 is 217.5 and the D75 is 283.0. In data set [1], the D90 is listed as 335.1 and the D95 was found to be 360.3.
Regarding `CC[C@H]1[C@@H](O)[C@@H]2[C@H](CC[C@]3(C)[C@@H]([C@H](C)CCC(=O)O)CC[C@@H]23)[C@@]2(C)CC[C@@H](O)C[C@@H]12` [JP1408001], in data set [1], the “PSD X10” value is on record as “X10: 1 μm”, the “PSD X50” value is reported as “X50: 5 μm” and the “PSD X90” value is “X90: 19 μm”.
Consider `CC[C@H]1[C@@H](O)[C@@H]2[C@H](CC[C@]3(C)[C@@H]([C@H](C)CCC(=O)O)CC[C@@H]23)[C@@]2(C)CC[C@@H](O)C[C@@H]12` [Unmilled API (no comil)], for which, in data set [1], the D10 was 4.8 and 3.3; the D50 is 218.6 and 167.7; the D75 is 335.7 and 273.7; the D90 is 427.6 and 355.6. Moreover, the D95 in data set [1] was 472.6 and 398.2. In addition, in data set [1] (listed as Unmilled API), the D10 was 4.8, the D50 is given as 218.6 and the D90 is 427.6.
In data set [1] (After jet-milling (micronized)), `CC[C@H]1[C@@H](O)[C@@H]2[C@H](CC[C@]3(C)[C@@H]([C@H](C)CCC(=O)O)CC[C@@H]23)[C@@]2(C)CC[C@@H](O)C[C@@H]12` [OCA Example # 2] returned a Dv (10) of 0.6 µm, a Dv (50) of 4.4 µm, a Dv (90) of 17.8 µm and a Dv (99) of 34.6 µm. In data set [1] (setting [3]), this compound came in with a Dv (10) of 1.8 µm, a Dv (50) of 19 µm, a Dv (90) of 231 µm and a Dv (99) of 509 µm. Moreover, in the data set “Surface area by BET” (After jet-milling (micronized)), the “Surface Area (m^2/kg)” value was determined as 3848 m^2/kg. Moreover, the “Surface Area (m^2/kg)” value in “Surface area by BET” (setting [3]) is reported as 1854 m^2/kg.
For the compound `CC[C@H]1[C@@H](O)[C@@H]2[C@H](CC[C@]3(C)[C@@H]([C@H](C)CCC(=O)O)CC[C@@H]23)[C@@]2(C)CC[C@@H](O)C[C@@H]12` [OCA Example # 3], in data set [1] (After jet-milling (micronized)), the Dv (10) was found to be 0.7 µm, the Dv (50) is 4.9 µm, the Dv (90) amounted to 14.1 µm and the Dv (99) amounted to 25.9 µm. Further, in data set [1] (setting [3]), the Dv (10) is 5.3 µm, the Dv (50) came out at 39 µm, the Dv (90) was 221 µm and the Dv (99) worked out at 513 µm. In addition, the “Surface Area (m^2/kg)” value in “Surface area by BET” (After jet-milling (micronized)) came out at 3412 m^2/kg. For the same compound, in “Surface area by BET” (setting [3]), the “Surface Area (m^2/kg)” value is 809 m^2/kg.
In data set [1], `CC[C@H]1[C@@H](O)[C@@H]2[C@H](CC[C@]3(C)[C@@H]([C@H](C)CCC(=O)O)CC[C@@H]23)[C@@]2(C)CC[C@@H](O)C[C@@H]12` [Comilled with 1.14 mm screen] registered a D10 of 7.9, a D25 of 73.9, a D50 of 239.3 and a D75 of 340.8. In addition, in data set [1], the D90 is recorded as 412.0 and the D95 stood at 452.7.
In data set [1], `CC[C@H]1[C@@H](O)[C@@H]2[C@H](CC[C@]3(C)[C@@H]([C@H](C)CCC(=O)O)CC[C@@H]23)[C@@]2(C)CC[C@@H](O)C[C@@H]12` [Jet mill, classifier speed 5000 rpm] yielded a D16 of 1.7 µm, a D84 of 15.2 µm, a D99 of 55.8 µm and a D10 of 1.3. In data set [1], this compound registered a D50 of 4.2 and a D90 of 18.9.
In data set [1], `CC[C@H]1[C@@H](O)[C@@H]2[C@H](CC[C@]3(C)[C@@H]([C@H](C)CCC(=O)O)CC[C@@H]23)[C@@]2(C)CC[C@@H](O)C[C@@H]12` [Jet mill, classifier speed 2000 rpm] returned a D16 of 2.3 µm, a D84 of 57.2 µm, a D99 of 97.9 µm and a D10 of 1.7. In data set [1], this compound came in with a D50 of 10.9 and a D90 of 69.3.
With `CC[C@H]1[C@@H](O)[C@@H]2[C@H](CC[C@]3(C)[C@@H]([C@H](C)CCC(=O)O)CC[C@@H]23)[C@@]2(C)CC[C@@H](O)C[C@@H]12` [OCA Example # 1], in data set [1] (After jet-milling (micronized)), the Dv (10) is 0.7 µm, the Dv (50) came to 6.1 µm, the Dv (90) came out at 18.8 µm and the Dv (99) amounted to 30.8 µm. In data set [1] (setting [3]), this compound came in with a Dv (10) of 2.6 µm, a Dv (50) of 26 µm, a Dv (90) of 162 µm and a Dv (99) of 419 µm. Further, the “Surface Area (m^2/kg)” value in the data set “Surface area by BET” (After jet-milling (micronized)) came out at 3178 m^2/kg. For the same compound, the “Surface Area (m^2/kg)” value in “Surface area by BET” (setting [3]) amounted to 1557 m^2/kg.
Turning to `CC[C@H]1[C@@H](O)[C@@H]2[C@H](CC[C@]3(C)[C@@H]([C@H](C)CCC(=O)O)CC[C@@H]23)[C@@]2(C)CC[C@@H](O)C[C@@H]12` [Comilled with 0.61 mm screen], in data set [1], the D10 was 5.5 and 4.1; the D25 is 106.6 and 102.2; the D50 is 223.2 and 263.1; the D75 is 320.8 and 351.0. Also, in data set [1], the D90 was 393.8 and 410.9; the D95 was 429.8 and 447.9.
As for `CC[C@H]1[C@@H](O)[C@@H]2[C@H](CC[C@]3(C)[C@@H]([C@H](C)CCC(=O)O)CC[C@@H]23)[C@@]2(C)CC[C@@H](O)C[C@@H]12` [Jet mill, classifier speed 4000 rpm], in data set [1], the D16 was determined as 1.6 µm, the D84 turned out to be 17 µm, the D99 is 36 µm and the D10 stood at 1.3. Also, in data set [1], the D50 is 3.8 and the D90 was determined as 21.7.
Regarding `CC[C@H]1[C@@H](O)[C@@H]2[C@H](CC[C@]3(C)[C@@H]([C@H](C)CCC(=O)O)CC[C@@H]23)[C@@]2(C)CC[C@@H](O)C[C@@H]12` [JP1307001], in data set [1], the “PSD X10” value is “X10: 1 μm”, the “PSD X50” value is listed as “X50: 5 μm” and the “PSD X90” value is on record as “X90: 20 μm”.
Take `CCC1C(O)C2C3CCC(C(C)CCC(=O)O)C3(C)CCC2C2(C)CCC(OC3OC(C(=O)O)C(O)C(O)C3O)CC12` (stereo not drawn) [3-glucuronide]: the “pharmacological activity relative to OCA (parent drug)” value in data set [2] is reported as “minimal pharmacologic activity”.
